Measurements: patent publication US11633512B2, “Method for disinfecting soils or other agricultural growing media” (Agrozono, S.L., priority 2017, dated 2023)
Like-named read-outs stand apart in the source and are kept apart here.

Key:
[1] = tested on: Sclerotinia sp, Fusarium oxysporum and Phytophthora citrophthora; test: Disinfection of infected soil in containers: survival of phytopathogenic fungi; format: in vivo; set-up: reduction of pathogenic fungi: concentration or dose not given beside the values
[2] = tested on: Erwinia amylovora and Clavibacter michiganensis; test: Disinfection of infected soil in containers: survival of phytopathogenic bacteria; format: in vivo
Experimental: In order to achieve the aforementioned objectives, soil without crops was infected with the phytopathogenic species Sclerotinia, Fusarium, Erwinia, Phytophthora and Clavibacter. The assay was performed in Lorca (Murcia). It took place in open air in bins with soil without crops and wherein tomatoes, peppers and melons had been grown previously. After performing the first application of the method of the present invention, tomato plants, Lycopersicum esculentum, were transplanted, the response of the plants to the treatments being evaluated.
The microbiological content of the soil was evaluated at different depths: 20, 40 and 60 cm., before and after the applications.
Containers were installed with a known volume of 1000 l (1×1×1 m) in field. Moreover, a medium proceeding from a greenhouse with melons, peppers and tomatoes having been grown there previously was selected and homogenised. Subsequently, the containers were filled with this medium.
In the laboratory, the following species were cultivated in vitro: • Phytopathogenic bacteria: Erwinia amylovora and Clavibacter michiganensis • Phytopathogenic fungi: Sclerotinia sp, Fusarium oxysporum and Phytophthora citrophthora
Each microorganism was grown in liquid medium until reaching a concentration of 10^8 ufc/ml. For each of the bins, 1 litre of microbial solution was prepared.
Then the pathogenic microorganisms were inoculated in the medium, periodic irrigations were performed until reaching the capacity of the medium, samples were taken at different depths (20 cm, 40 cm and 60 cm) and the phytopathogens were counted in said samples, in order to verify the permanence and presence of phytopathogens in the soil.
A first application of the disinfection method with ozone was performed. To do so, the ozonation equipment was inserted into the irrigation system and the parameters of said equipment were adjusted in order to achieve ozonated water with at least 2 ppm of dissolved ozone. Subsequently, the soil was left to rest for 30 min and the tomato plants, Lycopersicum esculentum, were transplanted. Subsequently, a second application of the disinfection method with ozone was performed in the same conditions indicated previously and, after letting the treated soil rest for 30 min, the microorganism formula (1) was inoculated.
In order to analyse the effect of the treatment on the disinfection of the soil, samples were taken at different depths (20 cm, 40 cm and 60 cm) and on different dates, and the microbial load in each of the samples was analysed.
In this section the data obtained is described. As explained in the assay protocol, soil samples were taken at different depths (20 cm, 40 cm and 60 cm) and quality controls were performed quantifying the number of pathogenic fungi and bacteria present.

[3] = tested on: tomato plants, Lycopersicum esculentum; test: Phytotoxicity and plant development of tomato plants transplanted into treated soil; format: in vivo
Experimental: Afterwards, as mentioned earlier, once the first disinfection was finished, tomato seedlings were transplanted into the bins in order to evaluate the “residual effect” of the treatment. Subsequently, the study of the plant development of the plants was performed.
After the first application of the disinfection method, on 19 Sep. 2014, 2 tomato plants were transplanted per container. The residual effect of the ozone was evaluated.
Throughout the assay, the parameters evaluated were: • Flow rate and ppm ozone at the outlet. • Microbial evaluation of the soil (t=0; t=7 days and t=30 days). • Relationship of the depth with the possible fungicidal effect. • Having established the tomato plants, it was evaluated if the treatments caused phytotoxicity.
The parameters that will be observed in the crop will be the appearance of necrosis and burning on leaves and fruits. • Plant development of the crop.
After the first application of the treatment with ozone, 2 tomato plants were transplanted into each of the containers. The growth of the plants was evaluated for three months, ending the analysis of this parameter on 2 January due to frost in the area (see FIGS. 5a and 5b).

[4] = tested on: nematodes (Meloidogyne); test: Disinfection of nematodes in Padrón pepper crop (greenhouse); format: in vivo, Meloidogyne sp.
Experimental: On a 500 m^2 surface of a greenhouse, with a water consumption of 3000 l/h, the disinfection with ozone was performed at a dose of 6 ppm, revising with the REDOX readings that a reading of 1000 mV is obtained in the farthest drip emitters, starting from a value of 185 mV in the irrigation water without ozone.
When the treatment ends, the inoculation of the microorganism formula (1) is performed (see example 1). Seven days after performing the treatment, samples of earth are taken to see the level of nematode infestation, observing a decrease of 90% of the population.

[5] = tested on: nematodes; test: Evolution of nematodes in soil after ozone treatment and inoculation of microorganisms; format: in vivo; details: 5.5 ppm of ozone for 2 hours; before treatment 480 juveniles/100 cc of earth
[6] = tested on: microorganisms; details: cited from earlier work
[7] = tested on: coliform bacteria; details: cited from earlier work
[8] = cited from earlier work

O=[O+][O-] [ozone]
reduction of pathogenic fungi ([1]; application 1, 24 hours after application, depth 20 cm): 100%
reduction of pathogenic fungi ([1]; application 1, 24 hours after application, depth 60 cm): 100%
reduction of pathogenic fungi ([1]; application 2, depth 20 cm): 100%
fungi present a month after application ([1]; application 2, depth 20 cm, 30 days): traces of fungi appearing a month later
reduction of pathogenic fungi ([1]; application 2, depth 40 cm, effect prolonged for 30 days): 100%
reduction of pathogenic fungi ([1]; application 2, depth 60 cm, effect prolonged for 30 days): 100%
disinfection against the phytopathogenic fungi tested ([1]; overall result of the soil assays, ozonated water at least 2 ppm): 100%
mortality of pathogenic mesophilic bacteria ([2]; after first application of ozonated water): less than 50%
reduction of pathogenic mesophilic bacteria ([2]; after second application): 50%
reduction of pathogenic mesophilic bacteria ([2]; after second application, listed as ozonated water): at least 50%
reduction of populations of pathogenic bacteria compared with control ([2]; application 1, all depths tested except 60 cm): less than 50%
completeness of reduction of pathogenic bacteria ([2]; application 2): the reduction was not complete
reduction of pathogenic mesophilic bacteria ([2]; second application, depth 60 cm): 60%
plant development of tomato plants ([3]; plants transplanted after first application into infected, treated soil): vigorous plant development
phytotoxicity: growth and plant development ([3]; three months after the transplant): normal growth and plant development
Meloidogyne sp. after the disinfection ([4]; ozonated irrigation, crop in full production, before disinfection 88 juveniles/100 cc soil): 8 juveniles/1 cc soil
decrease of the nematode population ([4]; ozone 6 ppm, then inoculation of microorganism formula (1), soil samples seven days after treatment): 90%
presence of juveniles after the treatment with ozone [5]: 44 /100 cc of earth
application period necessary for disinfection [6]: 5 s
time needed in order to eliminate microorganisms [6]: four
time to kill 99% of 60,000 coliform bacteria/ml [7]: 2.8 s
useful life of ozone ([8]; water temperature of 15° C.): 30 min
useful life of ozone ([8]; water temperature of 25° C.): 15 min
time until degradation of the ozone into oxygen ([8]; water without organic matter, pH of 7, water temperature of 15° C.): about 30 minutes
